Measurements from BindingDB's records for doi:10.1124/mol.64.4.841 (Pohang University of Science and Technology, 2003).
Square brackets hold non-standard residues; d marks the D form. Peptide text beside a SMILES is read from it.

Biological target: T1, fMet-Leu-Phe receptor (Homo sapiens, UniProt P21462)
T1 sequence (P21462 whole entry): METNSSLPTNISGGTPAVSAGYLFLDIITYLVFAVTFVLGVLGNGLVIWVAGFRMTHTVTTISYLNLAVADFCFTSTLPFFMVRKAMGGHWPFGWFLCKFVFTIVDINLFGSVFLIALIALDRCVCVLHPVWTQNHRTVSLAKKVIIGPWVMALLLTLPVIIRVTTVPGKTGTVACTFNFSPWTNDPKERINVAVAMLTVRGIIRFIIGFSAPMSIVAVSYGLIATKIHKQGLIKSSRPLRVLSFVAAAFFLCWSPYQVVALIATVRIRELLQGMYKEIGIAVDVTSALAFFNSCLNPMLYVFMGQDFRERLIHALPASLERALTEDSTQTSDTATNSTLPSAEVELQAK

| Ki | Compound |
| --- | --- |
| 0.057 µM | CSCC[C@H](NC(=O)[C@H](Cc1ccc(O)cc1)NC(=O)[C@H](CCCCN)NC(=O)[C@@H](N)Cc1c[nH]c2ccccc12)C(=O)N[C@@H](Cc1ccccc1)C(=O)N[C@H](CCSC)C(N)=O [WKYM(F/W)m-NH2] |
| 0.055 µM | CSCC[C@H](NC(=O)[C@H](Cc1ccc(O)cc1)NC(=O)[C@H](CCCNC(=N)N)NC(=O)[C@@H](N)Cc1c[nH]c2ccccc12)C(=O)N[C@H](C(=O)N[C@H](CCSC)C(N)=O)C(C)C [WRYMVm-NH2] (H-WRYMV[dM]-NH2) |
| 0.019 µM | CSCC[C@H](NC(=O)[C@H](Cc1c[nH]c2ccccc12)NC(=O)[C@H](CCCCN)NC(=O)[C@@H](N)Cc1c[nH]c2ccccc12)C(=O)N[C@H](C(=O)N[C@H](CCSC)C(N)=O)C(C)C [WKWMVm-NH2] (H-WKWMV[dM]-NH2) |
| 0.671 µM | CSCC[C@H](NC(=O)[C@H](Cc1ccc(O)cc1)NC(=O)[C@H](CCCCN)NC(=O)[C@@H](N)Cc1c[nH]c2ccccc12)C(=O)N[C@@H](Cc1ccc(O)cc1)C(=O)N[C@H](CCSC)C(N)=O [WKYMYm-NH2] (H-WKYMY[dM]-NH2) |
| 0.282 µM | CSCC[C@H](NC(=O)[C@H](Cc1c[nH]cn1)NC(=O)[C@H](CCCCN)NC(=O)[C@@H](N)Cc1c[nH]c2ccccc12)C(=O)N[C@H](C(=O)N[C@H](CCSC)C(N)=O)C(C)C [WKHMVm-NH2] (H-WKHMV[dM]-NH2) |

Second part, the compound before the results:

| Compound | Ki |
| --- | --- |
| CSCC[C@H](NC(=O)[C@H](CCC(=O)O)NC(=O)[C@H](CCCCN)NC(=O)[C@@H](N)Cc1c[nH]c2ccccc12)C(=O)N[C@H](C(=O)N[C@H](CCSC)C(N)=O)C(C)C [WKEMVm-NH2] (H-WKEMV[dM]-NH2) | 1.3 µM |
| CSCC[C@H](NC(=O)[C@H](Cc1ccccc1)NC(=O)[C@H](CCCCN)NC(=O)[C@@H](N)Cc1c[nH]c2ccccc12)C(=O)N[C@H](C(=O)N[C@H](CCSC)C(N)=O)C(C)C [WKFMVm-NH2] (H-WKFMV[dM]-NH2) | 0.018 µM |
| CSCC[C@H](NC(=O)[C@H](Cc1ccc(O)cc1)NC(=O)[C@H](CC(=O)O)NC(=O)[C@@H](N)Cc1c[nH]c2ccccc12)C(=O)N[C@H](C(=O)N[C@H](CCSC)C(N)=O)C(C)C [WDYMVm-NH2] (H-WDYMV[dM]-NH2) | 0.099 µM |
| CSCC[C@H](NC(=O)[C@H](Cc1ccc(O)cc1)NC(=O)[C@H](CCC(=O)O)NC(=O)[C@@H](N)Cc1c[nH]c2ccccc12)C(=O)N[C@H](C(=O)N[C@H](CCSC)C(N)=O)C(C)C [WEYMVm-NH2] (H-WEYMV[dM]-NH2) | 0.323 µM |
| CSCC[C@H](NC(=O)[C@H](Cc1ccc(O)cc1)NC(=O)[C@H](Cc1c[nH]cn1)NC(=O)[C@@H](N)Cc1c[nH]c2ccccc12)C(=O)N[C@H](C(=O)N[C@H](CCSC)C(N)=O)C(C)C [WHYMVm-NH2] (H-WHYMV[dM]-NH2) | 0.032 µM |
| CSCC[C@H](NC(=O)[C@@H](N)Cc1ccc(O)cc1)C(=O)N[C@H](C(=O)N[C@H](CCSC)C(N)=O)C(C)C [YMVm-NH2] (H-YMV[dM]-NH2) | 0.567 µM |
| CSCC[C@H](NC(=O)[C@H](CC(=O)O)NC(=O)[C@H](CCCCN)NC(=O)[C@@H](N)Cc1c[nH]c2ccccc12)C(=O)N[C@H](C(=O)N[C@H](CCSC)C(N)=O)C(C)C [WKDMVm-NH2] (H-WKDMV[dM]-NH2) | 1.3 µM |
